# In patent US20090087845A1, “Genetic Markers Of True Low Birth Weight” (priority 2005, published 2009):
# Tested on: placental gene expression
compound,measurement,setting,value
CCO [alcohol],"Mean 5%, probe set 1385639_at","5% alcohol group, Mean Contr 4.981165",4.504
same,"Mean 5%, Inpp1 (1394340_at)","5% alcohol group, Mean Contr 5.05511",4.704
same,"Mean 5%, RT1-Aw2 (1379496_at)","5% alcohol group, Mean Contr 5.19844",4.65
same,"Mean 5%, Trp53rk_predicted (1379488_at)","5% alcohol group, Mean Contr 5.228085",4.923
same,"Mean 5%, Enpp5 (1388926_at)","5% alcohol group, Mean Contr 5.277582",4.894
same,"Mean 5%, Prdm2_mapped (1381229_at)","5% alcohol group, Mean Contr 5.346211",4.872
same,"Mean 5%, RGD1564011_predicted (1375191_at)","5% alcohol group, Mean Contr 5.471081",5.008
same,"Mean 5%, Centa2 (1369725_at)","5% alcohol group, Mean Contr 5.497342",5.089
same,"Mean 5%, Transcribed locus (1383789_at)","5% alcohol group, Mean Contr 5.574571",5.342
same,"Mean 5%, Transcribed locus (1392286_at)","5% alcohol group, Mean Contr 5.585624",5.242
same,"Mean 5%, Mcpt6 (1387334_at)","5% alcohol group, Mean Contr 5.601581",5.206
same,"Mean 5%, Ggps1 (1377866_a_at)","5% alcohol group, Mean Contr 5.646626",5.273
same,"Mean 5%, Transcribed locus (1389718_at)","5% alcohol group, Mean Contr 5.751838",5.09
same,"Mean 5%, Transcribed locus (1377021_at)","5% alcohol group, Mean Contr 5.80011",5.149
same,"Mean 5%, Cp (1368418_a_at)","5% alcohol group, Mean Contr 5.816824",5.332
same,"Mean 5%, LOC303515 (1383571_at)","5% alcohol group, Mean Contr 5.867879",5.339
same,"Mean 5%, Transcribed locus (1389111_at)","5% alcohol group, Mean Contr 5.875325",5.42
same,"Mean 5%, Transcribed locus (1393980_at)","5% alcohol group, Mean Contr 5.991591",5.335
same,"Mean 5%, Pcmtd2_predicted (1374454_at)","5% alcohol group, Mean Contr 6.083112",5.464
same,"Mean 5%, Plek (1390687_at)","5% alcohol group, Mean Contr 6.105485",5.536
same,"Mean 5%, Cdca7 (1374540_at)","5% alcohol group, Mean Contr 6.195992",5.287
same,"Mean 5%, Cul2_predicted (1378127_at)","5% alcohol group, Mean Contr 6.258107",5.629
same,"Mean 5%, Pex6 (1368264_at)","5% alcohol group, Mean Contr 6.259265",5.664
same,"Mean 5%, St3gal3 (1373607_at)","5% alcohol group, Mean Contr 6.298338",5.956
same,"Mean 5%, Kbtbd4_predicted (1374614_at)","5% alcohol group, Mean Contr 6.314496",5.868
same,"Mean 5%, Phyh (1393245_at)","5% alcohol group, Mean Contr 6.483711",5.646
same,"Mean 5%, LOC287533 (1373627_at)","5% alcohol group, Mean Contr 6.526312",5.83
same,"Mean 5%, Transcribed locus (1388465_at)","5% alcohol group, Mean Contr 6.549543",6.133
same,"Mean 5%, Mss4 (1376745_at)","5% alcohol group, Mean Contr 6.629539",6.082
same,"Mean 5%, Plag1 (1391714_at)","5% alcohol group, Mean Contr 6.670053",5.859
same,"Mean 5%, Sumf1_predicted (1389833_at)","5% alcohol group, Mean Contr 6.839621",6.464
same,"Mean 5%, Polr3e_predicted (1374415_at)","5% alcohol group, Mean Contr 6.849002",6.356
same,"Mean 5%, RGD1308959 (1399108_at)","5% alcohol group, Mean Contr 6.859582",6.437
same,"Mean 5%, Wig1 (1387021_at)","5% alcohol group, Mean Contr 6.895168",6.437
same,"Mean 5%, probe set 1379314_at","5% alcohol group, Mean Contr 6.970231",6.195
same,"Mean 5%, Ddx59 (1383635_at)","5% alcohol group, Mean Contr 6.981191",6.627
same,"Mean 5%, Rnd3 (1394077_at)","5% alcohol group, Mean Contr 7.018906",6.516
same,"Mean 5%, probe set 1393037_at","5% alcohol group, Mean Contr 7.020197",6.711
same,"Mean 5%, Slc39a4_predicted (1374366_at)","5% alcohol group, Mean Contr 7.252498",6.553
same,"Mean 5%, RGD1305243_predicted (1374076_at)","5% alcohol group, Mean Contr 7.300542",6.98
same,"Mean 5%, Transcribed locus (1393310_at)","5% alcohol group, Mean Contr 7.364799",6.579
same,"Mean 5%, Gusb (1367901_at)","5% alcohol group, Mean Contr 7.420203",6.975
same,"Mean 5%, probe set 1392953_at","5% alcohol group, Mean Contr 7.435411",6.789
same,"Mean 5%, Crsp9_predicted (1377263_at)","5% alcohol group, Mean Contr 7.471023",6.737
same,"Mean 5%, probe set 1389582_at","5% alcohol group, Mean Contr 7.588214",6.742
same,"Mean 5%, Transcribed locus (1393226_at)","5% alcohol group, Mean Contr 7.705027",6.779
same,"Mean 5%, RGD1565289_predicted (1375297_at)","5% alcohol group, Mean Contr 7.731478",6.938
same,"Mean 5%, Zfp207 (1394591_at)","5% alcohol group, Mean Contr 8.125942",7.43
same,"Mean 5%, Akr7a2 (1367843_at)","5% alcohol group, Mean Contr 8.276972",7.547
same,"Mean 5%, Tparl (1373392_at)","5% alcohol group, Mean Contr 8.308305",8.164
same,"Mean 5%, Mcts1 (1388660_at)","5% alcohol group, Mean Contr 8.623529",8.191
same,"Mean 5%, Hadhsc (1370237_at)","5% alcohol group, Mean Contr 8.793343",8.481
same,"Mean 5%, Asah1 (1374770_at)","5% alcohol group, Mean Contr 9.074708",8.62
same,"Mean 5%, Arts1 (1368356_a_at)","5% alcohol group, Mean Contr 9.55972",9.182
same,"Mean 5%, Ndufb5_predicted (1388304_at)","5% alcohol group, Mean Contr 10.12286",9.747
same,"Mean 5%, MGC72992 (1389325_at)","5% alcohol group, Mean Contr 10.24563",9.919
same,"Mean 5%, Vps35_mapped (1372806_at)","5% alcohol group, Mean Contr 10.46183",10.13
same,"Mean 10%, probe set 1385639_at","10% alcohol group, Mean Contr 4.981165",4.259
same,"Mean 10%, Inpp1 (1394340_at)","10% alcohol group, Mean Contr 5.05511",4.269
same,"Mean 10%, RT1-Aw2 (1379496_at)","10% alcohol group, Mean Contr 5.19844",4.376
same,"Mean 10%, Trp53rk_predicted (1379488_at)","10% alcohol group, Mean Contr 5.228085",4.494
same,"Mean 10%, Enpp5 (1388926_at)","10% alcohol group, Mean Contr 5.277582",4.551
same,"Mean 10%, Prdm2_mapped (1381229_at)","10% alcohol group, Mean Contr 5.346211",4.661
same,"Mean 10%, RGD1564011_predicted (1375191_at)","10% alcohol group, Mean Contr 5.471081",4.639
same,"Mean 10%, Centa2 (1369725_at)","10% alcohol group, Mean Contr 5.497342",4.692
same,"Mean 10%, Transcribed locus (1383789_at)","10% alcohol group, Mean Contr 5.574571",4.986
same,"Mean 10%, Transcribed locus (1392286_at)","10% alcohol group, Mean Contr 5.585624",4.791
same,"Mean 10%, Mcpt6 (1387334_at)","10% alcohol group, Mean Contr 5.601581",4.849
same,"Mean 10%, Ggps1 (1377866_a_at)","10% alcohol group, Mean Contr 5.646626",4.808
same,"Mean 10%, Transcribed locus (1389718_at)","10% alcohol group, Mean Contr 5.751838",4.745
same,"Mean 10%, Transcribed locus (1377021_at)","10% alcohol group, Mean Contr 5.80011",4.752
same,"Mean 10%, Cp (1368418_a_at)","10% alcohol group, Mean Contr 5.816824",5.05
same,"Mean 10%, LOC303515 (1383571_at)","10% alcohol group, Mean Contr 5.867879",5.002
same,"Mean 10%, Transcribed locus (1389111_at)","10% alcohol group, Mean Contr 5.875325",4.794
same,"Mean 10%, Transcribed locus (1393980_at)","10% alcohol group, Mean Contr 5.991591",4.943
same,"Mean 10%, Pcmtd2_predicted (1374454_at)","10% alcohol group, Mean Contr 6.083112",4.612
same,"Mean 10%, Plek (1390687_at)","10% alcohol group, Mean Contr 6.105485",4.933
same,"Mean 10%, Cdca7 (1374540_at)","10% alcohol group, Mean Contr 6.195992",4.948
same,"Mean 10%, Cul2_predicted (1378127_at)","10% alcohol group, Mean Contr 6.258107",5.032
